Results on nine compounds are retold here after ChEMBL document CHEMBL1201862, “PubChem BioAssay data set” (2004).

What all share (assay): DTP human tumour cell line panel, 48 h
Experiment [1] relates to HT-29.
Experiment [2] concerns M14.
Experiment [3] deals with SNB-19.
The test system of experiment [4] is KM12.
Experiment [5] concerns EKVX.
Experiment [6] relates to MCF7.
In experiment [7] the test system is OVCAR-3.
Experiment [8] concerns NCI-H460.
Experiment [9] relates to T47D.
The subject of experiment [10] is TK-10.
Experiment [11] deals with MDA-MB-435.
The test system of experiment [12] is UACC-62.
Experiment [13] has as its system HL-60.
Experiment [14] relates to CCRF-CEM.
In experiment [15] the test system is Hs-578T.
Experiment [16] relates to OVCAR-8.
For experiment [17], the system named is SR.
Experiment [18] relates to Malme-3M.
The test system of experiment [19] is BT-549.

Several values for one entry are separate records, joined by “and”; a condition that tells them apart may be missing. Equal entries are not always repeated.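 Cells were grown in 96-well plates and exposed to each compound for 48 hours at five concentrations; endpoints were interpolated linearly between bracketing concentrations, or set to the highest concentration if not reached. GI50 is the concentration that inhibits growth by half.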 Activity calls are given as the source filed them. Cut-off read from the data, not from the text of the source: active = GI50 up to about 1.1 µM and inactive = higher.

Usually GI50 stands for the concentration at which growth is held to half of that of the control. Consider `CC(=O)c1sc2c(c1OC(=O)c1ccc(Cl)cc1)c(=O)n(-c1ccccc1)c(=S)n2-c1ccccc1`, for which the 50% growth inhibitory concentration (GI50) in [1] was 0.946 µM (active); in [2], 1.18 µM (inactive); in experiment [3] it was 3.56 µM (inactive); in experiment [4], 10.9 µM (inactive); in experiment [5], 11.4 µM (inactive); in experiment [6], 23.2 µM (inactive). The GI50 in experiment [7] is 14.2 µM (inactive); in experiment [8], 4.86 µM (inactive); in [9], 12.2 µM (inactive); in [10] it was 22.4 µM (inactive); in experiment [11], 4.14 µM (inactive); in [12] it was 15.7 µM (inactive). The GI50 in experiment [13] was 9.23 µM (inactive); in experiment [14], 1.06 µM (active); in [15], 2.08 µM (inactive); in [16], 3.48 µM (inactive); in experiment [17] it was 3.88 µM (inactive); in experiment [18], 1.94 µM (inactive).
Turning to `Cc1ccc(C2SCc3nc4ccccc4n32)cc1` (stereo not given), the GI50 in experiment [1] was 2.47 µM (inactive); in experiment [2], 4.49 µM (inactive); in [3], 4.65 µM (inactive); in [4], 1.51 µM (inactive); in experiment [5], 5.35 µM (inactive); in [6], 4.68 µM (inactive). Also, the GI50 is 4.72 µM (inactive) in experiment [7]; 3.76 µM (inactive) in experiment [8]; 10.3 µM (inactive) in experiment [9]; 3.54 µM (inactive) in [10]; 0.451 µM (active) in experiment [11]; 2.43 µM (inactive) in [12]. For the same compound, the GI50 in [13] is 1.6 µM (inactive); in experiment [14] it was 2.79 µM (inactive); in experiment [15], 2.61 µM (inactive); in experiment [16], 3.66 µM (inactive); in [18], 4.04 µM (inactive).
Take `CC1=NN(c2cccc(Cl)c2)C(=N/c2nc3ccccc3s2)/C1=C\C=C\c1ccccc1`: the GI50 in experiment [1] was 33.5 µM (inactive); in experiment [2] it was 42.3 µM (inactive); in [4], 34.2 µM (inactive); in experiment [5], 47.6 µM (inactive); in experiment [6], 25.7 µM (inactive); in experiment [7], 27 µM (inactive). Further, the GI50 in experiment [8] was 29.7 µM (inactive); in experiment [9], 46.7 µM (inactive); in [10], 34.9 µM (inactive); in experiment [11] it was 33.8 µM (inactive); in experiment [13], 13.8 µM (inactive); in [14] it was 1.77 µM (inactive). Also, the figures for the GI50 in experiment [15], in experiment [16] and in [17] were 24.3 µM (inactive), 36.1 µM (inactive) and 0.359 µM (active), respectively.
Regarding `Cn1c(=O)oc2cc(C(=O)CN3CCN(Cc4ccc5c(c4)OCO5)CC3)c(Cl)cc21`, the GI50 in [3], in experiment [6], in experiment [8], in [9], in [12] and in [13] was > 100 µM (inactive) in each case. Further, the GI50 in experiment [14], in experiment [15], in [17] and in experiment [18] was > 100 µM (inactive) in each case.
Consider `Cn1c(=O)n2n(c1=O)[C@@H](c1ccccc1)[C@H]2c1ccccc1`, for which the GI50 in experiment [1], in experiment [2], in [3], in [4], in experiment [5] and in [6] was > 100 µM (inactive) in each case. In addition, the GI50 in experiment [19] is > 100 µM (inactive); in [7], > 100 µM (inactive); in experiment [8], > 100 µM (inactive); in [10], > 100 µM (inactive); in experiment [12], > 100 µM (inactive); in experiment [13], 20.6 µM (inactive). Also, the GI50 in [14], in experiment [15], in experiment [16], in experiment [17] and in [18] was > 100 µM (inactive) each time.
As to `c1ccc(COCC2OC3c4ccccc4COC3C2OCc2ccccc2)cc1` (stereo not given), the GI50 in experiment [1] was 99.1 µM (inactive); in [2], > 100 µM (inactive); in experiment [3], > 100 µM (inactive); in experiment [4], > 100 µM (inactive); in experiment [5], > 100 µM (inactive); in experiment [7], > 100 µM (inactive). Moreover, the GI50 is 71.6 µM (inactive) in experiment [8]; > 100 µM (inactive) in [10]; 52.7 µM (inactive) in [12]; > 100 µM (inactive) in experiment [16]; 57.8 µM (inactive) in experiment [17]; > 100 µM (inactive) in experiment [18].
As for `COc1cccc(C2c3cc4c(cc3OC(N3CCCC3)C2c2ccccc2)OCO4)c1O` (stereo not given), the GI50 is 7.43 µM (inactive) in experiment [1]; 11 µM (inactive) in experiment [2]; 5.57 µM (inactive) in [3]; 2.76 µM (inactive) in experiment [4]; 16.6 µM (inactive) in experiment [5]; 8.65 µM (inactive) in experiment [6]. The GI50 in experiment [7] was 3.34 µM (inactive); in experiment [8] it was 8.22 µM (inactive); in experiment [9], 5.97 µM (inactive); in experiment [10] it was 13.7 µM (inactive); in experiment [11], 6.59 µM (inactive); in experiment [12], 14.1 µM (inactive). In addition, the GI50 in [14] was 5.13 µM (inactive); in experiment [15], 0.279 µM (active); in experiment [16] it was 10.3 µM (inactive); in experiment [17], 4.76 µM (inactive).
For `CN(C)CCOC1(Cc2ccc(F)cc2)CCC(C(C)(C)C)CC1` (stereo not given), the GI50 in experiment [1] is 2.88 µM (inactive) and 2.7 µM (inactive); in [2], 1.67 µM (inactive) and 2.05 µM (inactive); in [3], 7.31 µM (inactive) and 11.9 µM (inactive); in experiment [4] it was 5.62 µM (inactive) and 5.02 µM (inactive); in [5], 11 µM (inactive) and 16 µM (inactive); in experiment [6], 6.04 µM (inactive) and 5.24 µM (inactive). The GI50 in [7] was 8.67 µM (inactive) and 13.4 µM (inactive); in experiment [8] it was 3.27 µM (inactive) and 2.23 µM (inactive); in experiment [9] it was 4.34 µM (inactive) and 5.09 µM (inactive); in experiment [10], 6.95 µM (inactive) and 12 µM (inactive); in experiment [11], 3.51 µM (inactive) and 4.54 µM (inactive); in [12], 4.36 µM (inactive) and 6.52 µM (inactive). The GI50 in experiment [13] was 2.84 µM (inactive) and 2.93 µM (inactive); in experiment [14] it was 3.19 µM (inactive) and 2.64 µM (inactive); in experiment [15], 11.7 µM (inactive) and 14 µM (inactive); in [16], 11.2 µM (inactive) and 12.8 µM (inactive); in [17], 2.63 µM (inactive) and 2.29 µM (inactive); in [18] it was 4.38 µM (inactive) and 2.84 µM (inactive).
With `CC1(C)[C@@H](Cn2cnc3c(Cl)nc(N)nc32)CC[C@@]1(C)CO`, the GI50 is 40.3 µM (inactive) in experiment [2]; 83.4 µM (inactive) in experiment [3]; > 100 µM (inactive) in experiment [4]; 58.9 µM (inactive) in [5]; > 100 µM (inactive) in experiment [6]; 33 µM (inactive) in experiment [7]. The GI50 in experiment [9] is > 100 µM (inactive); in experiment [10] it was > 100 µM (inactive); in experiment [11], 26.4 µM (inactive); in experiment [12], 20 µM (inactive); in experiment [14], 31.6 µM (inactive); in experiment [15], 19.7 µM (inactive).
